The values that follow come from patent US20260317324A1, “BIFUNCTIONAL COMPOUNDS FOR DEGRADING BRAF VIA UBIQUITIN PROTEOSOME PATHWAY” (Nurix Therapeutics, Inc., priority 2023, published 2026).

Assay type in all cases: cell-based
The target of assay [1] is T1, BRAF V600E (Homo sapiens, UniProt P15056, V600E).
T1 construct: endogenous C-terminal HiBiT fusion tag on BRAF V600E allele; endogenous in cells; host or cells: A375 clone 1F10 (CRISPR-Cas9 knock-in of the HiBiT tag; parental A375 from ATCC)
T1 sequence (P15056 whole entry V600E, the tested form may be a part): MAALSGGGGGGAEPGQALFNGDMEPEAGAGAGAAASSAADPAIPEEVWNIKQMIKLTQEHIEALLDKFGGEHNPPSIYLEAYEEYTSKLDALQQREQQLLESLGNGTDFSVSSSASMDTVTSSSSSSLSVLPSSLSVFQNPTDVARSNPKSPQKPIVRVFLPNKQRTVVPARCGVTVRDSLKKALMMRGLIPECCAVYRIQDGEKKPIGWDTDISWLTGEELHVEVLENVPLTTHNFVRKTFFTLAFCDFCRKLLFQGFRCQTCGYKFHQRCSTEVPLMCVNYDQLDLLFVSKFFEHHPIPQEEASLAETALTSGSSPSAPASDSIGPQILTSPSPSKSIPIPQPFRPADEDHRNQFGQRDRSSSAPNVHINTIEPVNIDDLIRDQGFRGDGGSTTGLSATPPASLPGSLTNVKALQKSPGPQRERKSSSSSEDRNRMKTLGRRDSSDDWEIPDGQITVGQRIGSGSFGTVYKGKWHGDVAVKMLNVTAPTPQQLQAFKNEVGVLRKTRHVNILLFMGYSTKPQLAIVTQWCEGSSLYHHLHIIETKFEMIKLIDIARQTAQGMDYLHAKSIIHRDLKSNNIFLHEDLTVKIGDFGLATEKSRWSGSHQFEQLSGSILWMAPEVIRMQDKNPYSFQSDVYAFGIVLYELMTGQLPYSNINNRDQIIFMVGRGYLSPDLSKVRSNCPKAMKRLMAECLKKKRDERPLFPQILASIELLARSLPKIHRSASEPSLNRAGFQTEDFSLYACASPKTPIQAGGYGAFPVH
The experiment in a line: BRAF HiBiT degradation assay, C-terminal HiBiT-tagged BRAF V600E A375 cells (clone 1F10), Nano-Glo HiBiT Lytic assay. The conditions noted are these: for Dmax: A-375. Put shortly:
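A375 cells with CRISPR knock-in C-terminal HiBiT on endogenous BRAF V600E (clone 1F10) were seeded and cultured 24 h at 37 °C, then dosed with an 11-point half-log series (1 μM to 0.01 nM, duplicate, 0.2% DMSO). Lytic HiBiT luminescence gave % protein remaining; DC50 was the fitted concentration at 50%.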
For orientation: With HiBiT, luminescence reflects the tagged protein that the partner subunit can reach.

In assay [2] the target is T2, BRAF G469A (Homo sapiens, UniProt P15056, G469A).
T2 construct: Horizon Discovery (HCT-116 BRAF−/− cells); host or cells: HCT-116 BRAF−/− cells, clone 34, lentiviral transduction
T2 sequence (P15056 whole entry G469A): as the sequence (P15056 whole entry V600E, the tested form may be a part) above, with G469A, E600V counted along it
The experiment in a line: BRAF HiBiT degradation assay, C-terminal HiBiT-tagged BRAF G469A overexpressed in HCT-116 BRAF−/− cells (clone 34), Nano-Glo HiBiT Lytic assay. The method in brief:
(§1)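 HCT-116 BRAF−/− cells stably expressing the tagged mutant were seeded at 3,000 cells/well and grown 24 h at 37 °C before an 11-point half-log series from 1 μM to 0.01 nM, run in duplicate at 0.2% DMSO. Lytic HiBiT luminescence gave % protein remaining versus DMSO controls; DC50 was the fitted concentration at 50%.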

Assay [3] deals with T3, BRAF G466V (Homo sapiens, UniProt P15056, G466V).
T3 construct: Horizon Discovery (HCT-116 BRAF−/− cells); host or cells: HCT-116 BRAF−/− cells, clone 8, lentiviral transduction
T3 sequence (P15056 whole entry G466V): as the sequence (P15056 whole entry V600E, the tested form may be a part) above, with G466V, E600V counted along it
The experiment in a line: BRAF HiBiT degradation assay, C-terminal HiBiT-tagged BRAF G466V overexpressed in HCT-116 BRAF−/− cells (clone 8), Nano-Glo HiBiT Lytic assay. The method in brief:
as §1

The target in assay [4] is T4, BRAF D594G (Homo sapiens, UniProt P15056, D594G).
T4 construct: Horizon Discovery (HCT-116 BRAF−/− cells); host or cells: HCT-116 BRAF−/− cells, clone 63, lentiviral transduction
T4 sequence (P15056 whole entry D594G): as the sequence (P15056 whole entry V600E, the tested form may be a part) above, with D594G, E600V counted along it
The experiment in a line: BRAF HiBiT degradation assay, C-terminal HiBiT-tagged BRAF D594G overexpressed in HCT-116 BRAF−/− cells (clone 63), Nano-Glo HiBiT Lytic assay. Put shortly:
as §1

Setting [5] is: A375 (BRAF V600E, Class 1), DC50 at 50% degradation.
[6] abbreviates: A375 (BRAF V600E, Class 1), observed Dmax, % protein degraded relative to DMSO control.
[7] abbreviates: BRAF G469A (Class 2), HCT-116 BRAF−/− cells, DC50 at 50% degradation.
Where [8] appears, read: BRAF G469A (Class 2), HCT-116 BRAF−/− cells, observed Dmax relative to DMSO control.
Setting [9] is: BRAF G466V (Class 3), HCT-116 BRAF−/− cells, DC50 at 50% degradation.
[10] abbreviates: BRAF G466V (Class 3), HCT-116 BRAF−/− cells, observed Dmax relative to DMSO control.
[11] abbreviates: BRAF D594G (Class 3), HCT-116 BRAF−/− cells, DC50 at 50% degradation.
Setting [12] is: BRAF D594G (Class 3), HCT-116 BRAF−/− cells, observed Dmax relative to DMSO control.
Where [13] appears, read: A375 (BRAF V600E), DC50 at 50%: fitted conc. at Y=50.
Setting [14] is: A375 (BRAF V600E), percentage protein degraded at maximal compound effect relative to DMSO.
The mark [15] stands for this setting: Class 2, BRAF G469A, DC50 at 50%: fitted conc. at Y=50.
The mark [16] stands for this setting: HCT-116, Class 2, BRAF G469A, percentage protein degraded at maximal compound effect relative to DMSO.
[17] abbreviates: BRAF G466V, DC50 at 50%: fitted conc. at Y=50.
[18] abbreviates: HCT-116, BRAF G466V, percentage protein degraded at maximal compound effect relative to DMSO.
Setting [19] is: BRAF D594G, DC50 at 50%: fitted conc. at Y=50.
The mark [20] stands for this setting: HCT-116, BRAF D594G, percentage protein degraded at maximal compound effect relative to DMSO.

With `CCCS(=O)(=O)Nc1cccc(-c2cn(-c3ccc(N4CCN(CC5CCN(c6ccc([C@H]7CCC(=O)NC7=O)cc6)CC5)[C@H](C)C4)cc3)nc2-c2ccncc2)c1F` [Compound 378, N-[3-(1-{4-[(3R)-4-[(1-{4-[(3R)-2,6-dioxopiperidin-3-yl]phenyl}piperidin-4-yl)methyl]-3-methylpiperazin-1-yl]phenyl}-3-(pyridin-4-yl)-1H-pyrazol-4-yl)-2-fluorophenyl]propane-1-sulfonamide], the DC50 (in general, the concentration at which degradation of the target reaches its halfway point) in assay [1] (setting [5]) is 10 to 50 nM; in assay [2] (setting [7]), above 500 nM; in assay [3] (setting [9]), 10 to 50 nM; in assay [4] (setting [11]), above 500 nM. Besides, the Dmax (as a rule, the greatest extent of degradation seen) in assay [1] (setting [6]) is above 70%; in assay [2] (setting [8]), 30 to 70%; in assay [3] (setting [10]), 30 to 70%; in assay [4] (setting [12]), 30 to 70%.
As for `CCCS(=O)(=O)Nc1cc(Cl)cc(-c2cn(-c3ccc(N4CCN(CC5CCN(c6ccc([C@H]7CCC(=O)NC7=O)cc6)CC5)[C@@H](C)C4)cc3)nc2-c2ccncc2)c1F` [Compound 278, N-[5-chloro-3-(1-{4-[(3S)-4-[(1-{4-[(3R)-2,6-dioxopiperidin-3-yl]phenyl}piperidin-4-yl)methyl]-3-methylpiperazin-1-yl]phenyl}-3-(pyridin-4-yl)-1H-pyrazol-4-yl)-2-fluorophenyl]propane-1-sulfonamide], the DC50 is below 10 nM in assay [1] (setting [5]), above 500 nM in assay [2] (setting [7]), below 10 nM in assay [3] (setting [9]) and 50 to 500 nM in assay [4] (setting [11]). In addition, the greatest degradation seen (Dmax) was above 70% in assay [1] (setting [6]), 30 to 70% in assay [2] (setting [8]), above 70% in assay [3] (setting [10]) and 30 to 70% in assay [4] (setting [12]).
On to `CCCS(=O)(=O)Nc1cc(Cl)cc(-c2cn(-c3ccc(N4CCN(CC5CCN(c6ccc(N7CCC(=O)NC7=O)cc6)CC5)[C@@H](C)C4)cc3)nc2-c2ccncc2)c1F` [Compound 280, N-[5-chloro-3-(1-{4-[(3S)-4-({1-[4-(2,4-dioxo-1,3-diazinan-1-yl)phenyl]piperidin-4-yl}methyl)-3-methylpiperazin-1-yl]phenyl}-3-(pyridin-4-yl)-1H-pyrazol-4-yl)-2-fluorophenyl]propane-1-sulfonamide], for which the DC50 in assay [1] (setting [5]) was 10 to 50 nM; in assay [2] (setting [7]), above 500 nM; in assay [3] (setting [9]), above 500 nM; in assay [4] (setting [11]), above 500 nM. In addition, the Dmax in assay [1] (setting [6]) was above 70%; in assay [2] (setting [8]), below 30%; in assay [3] (setting [10]), 30 to 70%; in assay [4] (setting [12]), below 30%.
For `CCN(C)S(=O)(=O)Nc1cc(Cl)cc(-c2cn(-c3ccc(N4CCN(CC5CCN(c6ccc([C@H]7CCC(=O)NC7=O)cn6)CC5)CC4)cn3)nc2-c2ccncc2)c1F` [Compound 314, (3R)-3-(6-{4-[(4-{6-[4-(5-chloro-3-{[ethyl(methyl)sulfamoyl]amino}-2-fluorophenyl)-3-(pyridin-4-yl)-1H-pyrazol-1-yl]pyridin-3-yl}piperazin-1-yl)methyl]piperidin-1-yl}pyridin-3-yl)piperidine-2,6-dione], the DC50 in assay [1] (setting [5]) was below 10 nM; in assay [2] (setting [7]), 10 to 50 nM; in assay [3] (setting [9]), 10 to 50 nM; in assay [4] (setting [11]), below 10 nM. In addition, the Dmax was above 70% in assay [1] (setting [6]), 30 to 70% in assay [2] (setting [8]), above 70% in assay [3] (setting [10]) and above 70% in assay [4] (setting [12]).
On to `CCN(C)S(=O)(=O)Nc1cccc(-c2nc(C)sc2-c2ccnc(Nc3ccc(N4CCN(CC5CCN(c6ccc(C7CCC(=O)NC7=O)cn6)CC5)CC4)cn3)n2)c1F` (racemic) [Compound 43, Rac-(3S)-3-{6-[4-({4-[6-({4-[4-(3-{[ethyl(methyl)sulfamoyl]amino}-2-fluorophenyl)-2-methyl-1,3-thiazol-5-yl]pyrimidin-2-yl}amino)pyridin-3-yl]piperazin-1-yl}methyl)piperidin-1-yl]pyridin-3-yl}piperidine-2,6-dione], for which the DC50 in assay [1] (setting [13]) is below 10 nM; in assay [2] (setting [15]) it was 10 to 50 nM; in assay [3] (setting [17]) it was 10 to 50 nM; in assay [4] (setting [19]), below 10 nM. For the same compound, the Dmax in assay [1] (setting [14]) was above 70%; in assay [2] (setting [16]), 30 to 70%; in assay [3] (setting [18]) it was 30 to 70%; in assay [4] (setting [20]), 30 to 70%.
As for `O=C1CCC(c2ccc(N3CCC(F)(CN4CCN(c5ccc(-n6cc(-c7cc(Cl)cc(NS(=O)(=O)N8CCCC8)c7F)c(-c7ccncc7)n6)cc5)CC4)CC3)cc2)C(=O)N1` (racemic) [Compound 284, Rac-N-{5-chloro-3-[1-(4-{4-[(1-{4-[(3R)-2,6-dioxopiperidin-3-yl]phenyl}-4-fluoropiperidin-4-yl)methyl]piperazin-1-yl}phenyl)-3-(pyridin-4-yl)-1H-pyrazol-4-yl]-2-fluorophenyl}pyrrolidine-1-sulfonamide], the DC50 is 10 to 50 nM in assay [1] (setting [5]), 10 to 50 nM in assay [2] (setting [7]), below 10 nM in assay [3] (setting [9]) and below 10 nM in assay [4] (setting [11]). Further, the Dmax in assay [1] (setting [6]), in assay [2] (setting [8]), in assay [3] (setting [10]) and in assay [4] (setting [12]) was above 70% each time.
`CCCS(=O)(=O)Nc1cccc(-c2nc(C(C)(C)C)sc2-c2ccnc(Nc3ccc(N4CCN(CC5CCN(c6ccc([C@H]7CCC(=O)NC7=O)cc6)CC5)CC4)c(F)c3)n2)c1F` [Compound 87, N-[3-(2-tert-butyl-5-{2-[(4-{4-[(1-{4-[(3R)-2,6-dioxopiperidin-3-yl]phenyl}piperidin-4-yl)methyl]piperazin-1-yl}-3-fluorophenyl)amino]pyrimidin-4-yl}-1,3-thiazol-4-yl)-2-fluorophenyl]propane-1-sulfonamide]: the DC50 in assay [1] (setting [13]) was 10 to 50 nM; in assay [2] (setting [15]), above 500 nM; in assay [3] (setting [17]) it was 10 to 50 nM; in assay [4] (setting [19]), above 500 nM. The Dmax in assay [1] (setting [14]) was above 70%; in assay [2] (setting [16]), 30 to 70%; in assay [3] (setting [18]) it was 30 to 70%; in assay [4] (setting [20]), 30 to 70%.
For `CCCS(=O)(=O)Nc1cccc(-c2nc(C3CCC4(CC3)CCN(CC[C@H]3CCN(c5ccc(C6CCC(=O)NC6=O)cn5)C3)CC4)sc2-c2ccnc(N)n2)c1F` (mixture of isomers) [Compound 259, N-{3-[5-(2-aminopyrimidin-4-yl)-2-(3-{2-[(3S)-1-{5-[(3RS)-2,6-dioxopiperidin-3-yl]pyridin-2-yl}pyrrolidin-3-yl]ethyl}-3-azaspiro[5.5]undecan-9-yl)-1,3-thiazol-4-yl]-2-fluorophenyl}propane-1-sulfonamide], the DC50 in assay [1] (setting [5]) was 10 to 50 nM; in assay [2] (setting [7]), above 500 nM; in assay [3] (setting [9]), above 500 nM; in assay [4] (setting [11]), above 500 nM. For the same compound, the Dmax in assay [1] (setting [6]) is 30 to 70%; in assay [2] (setting [8]), below 30%; in assay [3] (setting [10]), below 30%; in assay [4] (setting [12]), below 30%.
For `O=C1CCC(c2ccc(N3CCC(CN4CCN(c5ccc(-n6cc(-c7cc(Cl)cc(NS(=O)(=O)N8CC[C@@H](F)C8)c7F)c(-c7ccncc7)n6)cc5F)CC4)CC3)nc2)C(=O)N1` (mixture of isomers) [Compound 366, (3R)—N-{5-chloro-3-[1-(4-{4-[(1-{5-[(3RS)-2,6-dioxopiperidin-3-yl]pyridin-2-yl}piperidin-4-yl)methyl]piperazin-1-yl}-3-fluorophenyl)-3-(pyridin-4-yl)-1H-pyrazol-4-yl]-2-fluorophenyl}-3-fluoropyrrolidine-1-sulfonamide], the DC50 in assay [1] (setting [5]), in assay [2] (setting [7]), in assay [3] (setting [9]) and in assay [4] (setting [11]) was below 10 nM throughout. Also, the Dmax in assay [1] (setting [6]), in assay [2] (setting [8]), in assay [3] (setting [10]) and in assay [4] (setting [12]) was above 70% throughout.
